Laboratory results: patent publication US10414797B2, “Gelatinase inhibitors and use thereof” (Iproteos S.L, priority 2015, dated 2019)
Where a SMILES comes first, the peptide text is derived from it. [ ]: non-standard residue; d: D form. The star is where a group is joined. ξ: configuration not given here. Pro(trans-4-F) = O=C(O)[C@@H]1C[C@@H](F)CN1; Benzoyl(3,5-F2) = O=C(c1cc(F)cc(F)c1)*; NMeIle(3ξ) = CCC(C)[C@H](NC)C(=O)O; NMeA = CN[C@@H](C)C(=O)O; Dab = NCC[C@H](N)C(=O)O; Hexanoyl = CCCCCC(=O)*; Bz = O=C(c1ccccc1)*; NHOH = ON*

Columns and labels:
Format in all cases: biochemical
MMP-2 = MMP-2 (Homo sapiens (Human), UniProt P08253); test: MMP-2 inhibition assay (fluorimetric, DQ gelatin substrate); conditions: recombinant MMP-2 (CHO cells) 85 ng/mL, DQ gelatin 50 μg/mL, 2 hours at room temperature, pH 7.6
Chain of MMP-2 (P08253 110-660): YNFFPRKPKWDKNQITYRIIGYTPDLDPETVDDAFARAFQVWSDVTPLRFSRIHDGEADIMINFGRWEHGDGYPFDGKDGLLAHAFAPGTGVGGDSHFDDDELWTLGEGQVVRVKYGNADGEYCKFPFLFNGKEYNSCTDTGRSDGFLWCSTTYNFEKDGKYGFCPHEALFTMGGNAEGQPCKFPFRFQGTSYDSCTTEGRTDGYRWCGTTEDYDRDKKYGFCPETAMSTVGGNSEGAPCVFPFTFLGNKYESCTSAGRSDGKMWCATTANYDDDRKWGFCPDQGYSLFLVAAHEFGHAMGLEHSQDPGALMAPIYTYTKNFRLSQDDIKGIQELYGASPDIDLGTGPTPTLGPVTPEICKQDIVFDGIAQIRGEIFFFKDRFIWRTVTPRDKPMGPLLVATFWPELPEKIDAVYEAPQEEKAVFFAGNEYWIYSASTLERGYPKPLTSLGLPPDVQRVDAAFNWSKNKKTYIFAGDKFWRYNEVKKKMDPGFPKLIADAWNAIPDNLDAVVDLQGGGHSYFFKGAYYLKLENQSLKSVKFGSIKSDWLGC
Experimental: (§1) All the experiments were done in 1× reaction buffer, which was obtained from a 10× reaction buffer solution. The content of the 10× reaction buffer was: 50 mL of 0.5 M Tris-HCl, 1.5 M NaCl, 50 mM CaCl2 and 2 mM sodium azide at pH 7.6. To obtain the 1× reaction buffer 4 mL of the 10× reaction buffer were diluted in 36 mL of H2O.
Recombinant MMP-2 expressed in Chinese hamster ovary (CHO) cells was obtained from Merck-Millipore (catalog number PF023-5UG). DQ gelatin from pig skin fluorescein conjugated (MMP-2 substrate) was obtained from Life Technologies (catalog number E12055).
Preparation of the MMP-2 for the activity assay: MMP-2 was provided as a stock solution (0.1 mg/mL). The enzyme was diluted in 1× reaction buffer to a final concentration of 5 μg/mL.
Preparation of the DQ gelatin (substrate) solution for the activity assay: the solid form of the substrate was dissolved in water in order to obtain a stock solution of 1 mg/mL.
Procedure: The enzymatic assays were performed in 96-well microtiter plate, which allowed simultaneous monitoring of multiple reactions. For each reaction, 86.3 μL of 1× reaction buffer (pH 7.6), 1.7 μL of MMP-2 (final concentration 85 ng/mL) and 2 μL of the corresponding new compound were added to each well. A stock solution of new compound was prepared in DMSO (100 mM), and dilutions were prepared from this stock solution with DMSO. Finally, to the mixture contained in each well 10 μL of the substrate were added (final concentration 50 μg/mL). The reaction was incubated for 2 hours at room temperature in an orbital shaker (100 rpm).
The inhibitory activity of the new compound was measured fluorimetrically. The excitation and emission wavelengths were 483 and 525 nm, respectively.
Inhibitory activity at several concentration points (ranging from 100 pM to 200 μM MMP) were measured for each compound. The inhibitory activity on MMP-2 and MMP-9 was calculated according to eq 1. For each new compound, the fluorescence in the presence (a) and in the absence (b) of the corresponding MMP was measured. The maximum fluorescence (0% inhibitory activity) was obtained from a sample of the corresponding MMP in the absence of inhibitory compounds. To estimate the inhibitory potency of the novel compounds, activities were plotted against the log concentration of the compound, adjusting to a sigmoid curve using GraphPad Prism software, and the IC50 value, defined as the concentration of compound required to inhibit 50% of the corresponding MMP activity, was determined from resulting curve.
a corresponds to fluorescence intensity in the presence of substrate+test compound+MMP
b corresponds to the fluorescence intensity in the presence of substrate+tested compound
c corresponds to the fluorescence intensity in the presence of substrate+MMP
d corresponds to the fluorescence intensity of the presence of substrate

MMP-1 = MMP-1 (Homo sapiens (Human), UniProt P03956); test: MMP-1 inhibition assay (fluorogenic peptide substrate); conditions: recombinant MMP-1 5.52 nM, Mca-PLGL-Dpa-AR-NH2 10 μM, 4 hours at room temperature; tested at 1, 10, 100 and 200 μM
Chain of MMP-1 (P03956 100-269): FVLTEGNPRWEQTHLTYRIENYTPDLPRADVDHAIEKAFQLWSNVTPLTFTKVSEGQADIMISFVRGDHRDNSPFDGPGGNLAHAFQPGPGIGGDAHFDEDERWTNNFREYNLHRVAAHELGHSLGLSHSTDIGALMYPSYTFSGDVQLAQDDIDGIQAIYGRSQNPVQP
Experimental: as §1
Recombinant MMP-1 expressed in E. Coli was obtained from Enzo Life Sciences (catalog number BML-SE180). Mca-PLGL-Dpa-AR-NH2 (fluorogenic peptide substrate) was obtained from R&D Systems (catalog number ES001).
Preparation of the MMP-1 for the activity assay: MMP-1 was provided as a stock solution (0.55 mg/mL). The enzyme was diluted in 1× reaction buffer to a final concentration of 276 nM.
MMP-1 peptide substrate was provided as a stock solution in DMSO (6 mM). For the assay, the substrate was diluted 1× reaction buffer to a concentration of 100 μM.
Procedure: The enzymatic assays were performed in 96-well microtiter plate, which allowed simultaneous monitoring of multiple reactions. For each reaction, 86 μL of 1× reaction buffer (pH 7.6), 2 μL of MMP-1 (final concentration 5.52 nM) and 2 μL of the corresponding new compound were added to each well. A stock solution of the new compound was prepared in DMSO (100 mM), and dilutions were prepared from this stock solution with DMSO. Finally, to the mixture contained in each well 10 μL of the substrate were added (final concentration 10 μM). The reaction was incubated for 4 hours at room temperature in an orbital shaker (100 rpm).
(§2) The inhibitory activity of the new compound was measured fluorimetrically. The excitation and emission wavelengths were 320 and 405 nm, respectively.
(§3) Inhibitory activity at several concentration points (1, 10, 100 and 200 μM) were measured for each compound. The inhibitory activity on MMP-1, MMP-3 and MMP-7 was calculated according to eq 1 and The IC50 value was calculated as explained above for MMP-2 and MMP-9.

MMP-3 = MMP-3 (Homo sapiens (Human), UniProt P08254); test: MMP-3 inhibition assay (fluorogenic peptide substrate); conditions: recombinant MMP-3 7.7 nM, Mca-RPKPVE-Nval-WRK(Dnp)-NH2 10 μM, 4 hours at room temperature; tested at 1, 10, 100 and 200 μM
Chain of MMP-3 (P08254 100-477): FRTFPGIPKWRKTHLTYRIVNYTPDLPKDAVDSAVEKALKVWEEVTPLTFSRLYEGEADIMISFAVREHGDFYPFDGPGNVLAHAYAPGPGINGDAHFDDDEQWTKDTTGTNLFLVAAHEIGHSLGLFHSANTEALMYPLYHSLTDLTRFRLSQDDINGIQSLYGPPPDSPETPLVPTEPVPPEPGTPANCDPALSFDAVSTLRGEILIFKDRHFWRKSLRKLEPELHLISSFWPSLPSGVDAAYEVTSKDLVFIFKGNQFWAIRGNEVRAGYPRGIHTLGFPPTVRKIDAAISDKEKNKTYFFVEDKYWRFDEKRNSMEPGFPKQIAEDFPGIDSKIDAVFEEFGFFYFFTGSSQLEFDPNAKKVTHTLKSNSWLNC
Experimental: as §1
Recombinant MMP-3 expressed in E. Coli was obtained from Merck-Millipore (catalog number 44217). Mca-RPKPVE-Nval-WRK(Dnp)-NH2 (fluorogenic peptide substrate) was obtained from R&D Systems (catalog number ES002).
Preparation of the MMP-3 for the activity assay: MMP-3 was provided as a stock solution (0.1 mg/mL). The enzyme was diluted in water to a final concentration of 0.005 mg/mL.
MMP-3 peptide substrate was provided as a stock solution in DMSO (4.5 mM). For the assay, the substrate was diluted 1× reaction buffer to a concentration of 100 μM.
Procedure: The enzymatic assays were performed in 96-well microtiter plate, which allowed simultaneous monitoring of multiple reactions. For each reaction, 84.6 μL of 1× reaction buffer (pH 7.6), 3.4 μL of MMP-3 (final concentration 7.7 nM) and 2 μL of the corresponding new compound were added to each well. A stock solution of new compound was prepared in DMSO (100 mM), and dilutions were prepared from this stock solution with DMSO. Finally, to the mixture contained in each well 10 μL of the substrate were added (final concentration 10 μM). The reaction was incubated for 4 hours at room temperature in an orbital shaker (90 rpm).
as §2, §3

Row | SMILES | IC50 (MMP-2) [µM] | IC50 (MMP-1) [µM] | IC50 (MMP-3) [µM] | MMP-1 IC50 (MMP-1) [µM] | MMP-3 IC50 (MMP-3) [µM]
1 | CCC(C)[C@@H](C(=O)N[C@@H](CCNC(=O)c1cc(F)cc(F)c1)C(=O)NO)N(C)C(=O)[C@@H]1CCCN1C(=O)[C@H](C)N(C)C(C)=O (stereo partly drawn) [Example 12, (2 S)-1-[(2S)-2-[acetyl(methyl)amino]propanoyl]-N-[(1S)-1-[[(1S)-3-[(3,5-difluorobenzoyl)amino]-1-(hydroxycarbamoyl)propyl]carbamoyl]-2-methyl-butyl]-N-methyl-pyrrolidine-2-carboxamide] (Ac-[NMeA]P[NMeIle(3ξ)][Dab](Benzoyl(3,5-F2))-{NHOH}) | 0.021 | 14.9 | 157 | – | –
2 | CCC(C)[C@@H](C(=O)N[C@@H](CCNC(=O)c1cc(F)cc(F)c1)C(=O)NO)N(C)C(=O)[C@@H]1CCCN1C(=O)CCCOc1ccccc1 (stereo partly drawn) [Example 9, (2S)—N-[(1S)-1-[[(1S)-3-[(3,5-difluorobenzoyl)amino]-1-(hydroxycarbamoyl)propyl]carbamoyl]-2-methyl-butyl]-N-methyl-1-(4-phenoxybutanoyl)pyrrolidine-2-carboxamide] | 0.362 | 11.4 | 3.2 | – | –
3 | CCCCCC(=O)N1C[C@H](F)C[C@H]1C(=O)N(C)[C@H](C(=O)N[C@@H](CCNC(=O)c1ccccc1)C(=O)NO)C(C)CC (stereo partly drawn) [Example 16, (2S,4R)—N-[(1S)-1-[[(1S)-3-benzamido-1-(hydroxycarbamoyl)propyl]carbamoyl]-2-methyl-butyl]-4-fluoro-N-methyl-1-hexanoyl-pyrrolidine-2-carboxamide] (Hexanoyl-[Pro(trans-4-F)]-[NMeIle(3ξ)]-[Dab](Bz)-{NHOH}) | < 0.001 | – | – | <1 | <1
4 | CCCCCCCC(=O)N1CCC[C@H]1C(=O)N(C)[C@H](C(=O)N[C@@H](CCNC(=O)c1cc(F)cc(F)c1)C(=O)NO)C(C)CC (stereo partly drawn) [Example 6, (2S)—N-[(1S)-1-[[(1S)-3-[(3,5-difluorobenzoyl)amino]-1-(hydroxycarbamoyl)propyl]carbamoyl]-2-methyl-butyl]-N-methyl-1-octanoyl-pyrrolidine-2-carboxamide] | 0.4 | 25.6 | 53.4 | – | –
5 | CCCC(CCC)C(=O)N1CCC[C@H]1C(=O)N(C)[C@H](C(=O)N[C@@H](CCNC(=O)c1cc(F)cc(F)c1)C(=O)NO)C(C)CC (stereo partly drawn) [Example 8, (2S)—N-[(1S)-1-[[(1S)-3-[(3,5-difluorobenzoyl)amino]-1-(hydroxycarbamoyl)propyl]carbamoyl]-2-methyl-butyl]-N-methyl-1-(2-propylpentanoyl)pyrrolidine-2-carboxamide] | 0.974 | 3.65 | 3.81 | – | –

Continued, in another order:

Row | IC50 (MMP-2) [µM] | IC50 (MMP-1) [µM] | IC50 (MMP-3) [µM] | SMILES | MMP-1 IC50 (MMP-1) [µM] | MMP-3 IC50 (MMP-3) [µM]
6 | 0.242 | 4.94 | 19.2 | CCC(C)[C@@H](C(=O)N[C@@H](CCNC(=O)c1cc(F)cc(F)c1)C(=O)NO)N(C)C(=O)[C@@H]1CCCN1C(C)=O (stereo partly drawn) [Example 2, (2S)-1-acetyl-N-[(1S)-1-[[(1S)-3-[(3,5-difluorobenzoyl)amino]-1-(hydroxycarbamoyl)propyl]carbamoyl]-2-methyl-butyl]-N-methyl-pyrrolidine-2-carboxamide] | – | –
7 | 0.116 | 6.68 | 25.7 | CCC(C)[C@@H](C(=O)N[C@@H](CCNC(=O)c1cc(F)cc(F)c1)C(=O)NO)N(C)C(=O)[C@@H]1CCCN1C(=O)CC(C)C (stereo partly drawn) [Example 5, (2S)—N-[(1S)-1-[[(1S)-3-[(3,5-difluorobenzoyl)amino]-1-(hydroxycarbamoyl)propyl]carbamoyl]-2-methyl-butyl]-N-methyl-1-(3-methylbutanoyl)pyrrolidine-2-carboxamide] | – | –
